These results are taken from US11130752B2, “Aminopyrimidine compound” (Cardurion Pharmaceuticals, LLC, priority 2018, dated 2021).

In general, IC50 refers to the midpoint of a concentration-inhibition curve. Lower therefore signals greater potency in that assay.

Structures can show the parent of a compound that is named as a salt.

For the assay, the target named is T1, human CaMKIIδ (Homo sapiens, UniProt Q13557).
T1 construct: Full-length, glutathione-S-transferase(GST)-tagged, human CaMKIIδ was purchased from Carna Biosciences; purchased Carna Biosciences (CaMKIIδ); Wako Pure Chemical Industries (calmodulin) 02-111
Kind of assay: In vitro CaMKII inhibitory activity (binding assay, TR-FRET). Conditions: Table 1, GST-tagged human CaMKIIδ, activity ranks. Here is the method: Evaluation of In Vitro CaMKII Inhibitory Activity (Binding Assay)
In vitro CaMKIIδ inhibitory activity was evaluated by a binding assay.
Full-length, glutathione-S-transferase(GST)-tagged, human CaMKIIδ was purchased from Carna Biosciences (product #02-111, Kobe, Japan). Full-length bovine calmodulin was purchased from Wako Pure Chemical Industries (Osaka, Japan). Terbium-labeled anti-GST antibody (Tb-anti-GST Ab) was purchased from Life Technologies (Carlsbad, Calif., USA). Boron-dipyrromethene (BODIPY)-labeled probe ligand was synthesized as described below.
Time-Resolved Fluorescence Resonance Energy Transfer (TR-FRET) Assay
All assays were conducted using 384-well, white, flat-bottomed plates (product #784075, Greiner Bio-One, Frickenhausen, Germany) in kinase assay buffer, which consists of 50 mM HEPES pH 7.6, 10 mM MgCl2, 1 mM EGTA, 0.01% Brig-35, 0.1 mM DTT). The fluorescent probe ligand was added at a final concentration of 300 nM to solutions containing 0.21 nM Tb-anti-GST Ab, 1 mM CaCl2, 10 μg/mL calmodulin, and 0.5 nM GST-tagged CaMKIIδ. After shaded incubation of the protein-probe mixture on ice for 30 min, the premix was dispensed in the assay plate including test inhibitors with 4 fold dilution series of eight concentrations. After 1 hr incubation at room temperature, TR-FRET signals were measured in duplicate using an EnVision microplate reader (Perkin Elmer, Waltham, Mass., USA). The solution in each well was excited with a laser (λ=340 nm) reflected by a dichroic mirror (D400/D505 (Perkin Elmer) through an excitation filter (UV (TRF) 340, (Perkin Elmer)), and fluorescence from Tb and BODIPY were detected through two emission filters (CFP 495 (Perkin Elmer) for Tb, Emission 520 (Perkin Elmer) for BODIPY).
The percentage of inhibition of test compounds was calculated according to equation (1) Inhibition(%)=100×(μH−T)/(μH−μL) (1)
Where T is the value of the wells containing test compounds and μH and μL are the mean values of the 0% and 100% inhibition control wells, respectively. The values of the 0 and 100% controls were the signals obtained in the absence and presence of 3 μM its parent compound, respectively. The half maximal inhibitory concentration (IC50) of test compounds was calculated by fitting the data with the logistic equation using XLfit (IDBS, Guildford, UK). The IC50 was classified according to the following activity ranks.
Regarding `COCCOc1nn([C@H]2CC[C@H](N3CCOCC3)CC2)cc1Nc1ncc(-c2ccc(C#N)c(O[C@@H](C)Cn3cnnn3)c2)cn1` [Example 1, 2-(((S)-1-(1H-tetrazol-1-yl)propan-2-yl)oxy)-4-(2-((3-(2-methoxyethoxy)-1-((1r,4r)-4-morpholinocyclohexyl)-1H-pyrazol-4-yl)amino)pyrimidin-5-yl)benzonitrile], the IC50 was < 10 nM.

For the compound `COCCOc1nn([C@H]2CC[C@H](N3CCOCC3)CC2)cc1Nc1ncc(-c2ccc(Cl)c(O[C@@H](C)Cn3cnnn3)c2)cn1` [Example 2, 5-(3-(((S)-1-(1H-tetrazol-1-yl)propan-2-yl)oxy)-4-chlorophenyl)-N-(3-(2-methoxyethoxy)-1-((1r,4r)-4-morpholinocyclohexyl)-1H-pyrazol-4-yl)pyrimidin-2-amine], the IC50 is < 10 nM.

Regarding `CCOCCOc1nn([C@H]2CC[C@H](N3CCOCC3)CC2)cc1Nc1ncc(-c2ccc(C#N)c(O[C@@H](C)Cn3cnnn3)c2)cn1` [Example 8, 2-(((S)-1-(1H-tetrazol-1-yl)propan-2-yl)oxy)-4-(2-((3-(2-ethoxyethoxy)-1-((1r,4r)-4-morpholinocyclohexyl)-1H-pyrazol-4-yl)amino)pyrimidin-5-yl)benzonitrile], the IC50 is < 10 nM.

Consider `CCOCCOc1nn([C@H]2CC[C@H](N3CCOCC3)CC2)cc1Nc1ncc(-c2ccc(Cl)c(O[C@@H](C)Cn3cnnn3)c2)cn1` [Example 9, 5-(3-(((S)-1-(1H-tetrazol-1-yl)propan-2-yl)oxy)-4-chlorophenyl)-N-(3-(2-ethoxyethoxy)-1-((1r,4r)-4-morpholinocyclohexyl)-1H-pyrazol-4-yl)pyrimidin-2-amine], for which the IC50 is < 10 nM.

For the compound `CC(C)OCCOc1nn([C@H]2CC[C@H](N3CCOCC3)CC2)cc1Nc1ncc(-c2ccc(C#N)c(O[C@@H](C)Cn3cnnn3)c2)cn1` [Example 14, 2-(((S)-1-(1H-tetrazol-1-yl)propan-2-yl)oxy)-4-(2-((3-(2-isopropoxyethoxy)-1-((1r,4r)-4-morpholinocyclohexyl)-1H-pyrazol-4-yl)amino)pyrimidin-5-yl)benzonitrile], the IC50 was < 10 nM.

With `CC(C)OCCOc1nn([C@H]2CC[C@H](N3CCOCC3)CC2)cc1Nc1ncc(-c2ccc(C#N)c(O[C@@H](C)Cn3cncn3)c2)cn1` [Example 16, 2-(((S)-1-(1H-1,2,4-triazol-1-yl)propan-2-yl)oxy)-4-(2-((3-(2-isopropoxyethoxy)-1-((1r,4r)-4-morpholinocyclohexyl)-1H-pyrazol-4-yl)amino)pyrimidin-5-yl)benzonitrile], the IC50 was < 10 nM.

Consider `COCCCOc1nn([C@H]2CC[C@H](N3CCOCC3)CC2)cc1Nc1ncc(-c2ccc(Cl)c(O[C@@H](C)Cn3cnnn3)c2)cn1` [Example 27, 5-(3-(((S)-1-(1H-tetrazol-1-yl)propan-2-yl)oxy)-4-chlorophenyl)-N-(3-(3-methoxypropoxy)-1-((1r,4r)-4-morpholinocyclohexyl)-1H-pyrazol-4-yl)pyrimidin-2-amine], for which the IC50 was < 10 nM.

Consider `COCCCOc1nn([C@H]2CC[C@H](N3CCOCC3)CC2)cc1Nc1ncc(-c2ccc(C#N)c(O[C@@H](C)Cn3cncn3)c2)cn1` [Example 28, 2-(((S)-1-(1H-1,2,4-triazol-1-yl)propan-2-yl)oxy)-4-(2-((3-(3-methoxypropoxy)-1-((1r,4r)-4-morpholinocyclohexyl)-1H-pyrazol-4-yl)amino)pyrimidin-5-yl)benzonitrile], for which the IC50 is < 10 nM.

Regarding `CCOCCCOc1nn([C@H]2CC[C@H](N3CCOCC3)CC2)cc1Nc1ncc(-c2ccc(Cl)c(O[C@@H](C)Cn3cnnn3)c2)cn1` [Example 34, 5-(3-(((S)-1-(1H-tetrazol-1-yl)propan-2-yl)oxy)-4-chlorophenyl)-N-(3-(3-ethoxypropoxy)-1-((1r,4r)-4-morpholinocyclohexyl)-1H-pyrazol-4-yl)pyrimidin-2-amine], the IC50 is < 10 nM.

Regarding `C[C@@H](Cn1cnnn1)Oc1cc(-c2cnc(Nc3cn([C@H]4CC[C@H](N5CCOCC5)CC4)nc3OCCCOCC(F)F)nc2)ccc1C#N` [Example 46, 2-(((S)-1-(1H-tetrazol-1-yl)propan-2-yl)oxy)-4-(2-((3-(3-(2,2-difluoroethoxy)propoxy)-1-((1r,4r)-4-morpholinocyclohexyl)-1H-pyrazol-4-yl)amino)pyrimidin-5-yl)benzonitrile], the IC50 was < 10 nM.

For the compound `C[C@@H](Cn1cnnn1)Oc1cc(-c2cnc(Nc3cn([C@H]4CC[C@H](N5CCOCC5)CC4)nc3OCCCOCC(F)F)nc2)ccc1Cl` [Example 47, 5-(3-(((S)-1-(1H-tetrazol-1-yl)propan-2-yl)oxy)-4-chlorophenyl)-N-(3-(3-(2,2-difluoroethoxy)propoxy)-1-((1r,4r)-4-morpholinocyclohexyl)-1H-pyrazol-4-yl)pyrimidin-2-amine], the IC50 is < 10 nM.

Take `COCCOCCOc1nn([C@H]2CC[C@H](N3CCOCC3)CC2)cc1Nc1ncc(-c2ccc(C#N)c(O[C@@H](C)Cn3cnnn3)c2)cn1` [Example 48, 2-(((S)-1-(1H-tetrazol-1-yl)propan-2-yl)oxy)-4-(2-((3-(2-(2-methoxyethoxy)ethoxy)-1-((1r,4r)-4-morpholinocyclohexyl)-1H-pyrazol-4-yl)amino)pyrimidin-5-yl)benzonitrile hydrochloride]: the IC50 was < 10 nM.

Take `COCCOCCOc1nn([C@H]2CC[C@H](N3CCOCC3)CC2)cc1Nc1ncc(-c2ccc(Cl)c(O[C@@H](C)Cn3cnnn3)c2)cn1` [Example 49, 5-(3-(((S)-1-(1H-tetrazol-1-yl)propan-2-yl)oxy)-4-chlorophenyl)-N-(3-(2-(2-methoxyethoxy)ethoxy)-1-((1r,4r)-4-morpholinocyclohexyl)-1H-pyrazol-4-yl)pyrimidin-2-amine hydrochloride]: the IC50 was < 10 nM.

For the compound `C[C@@H](Cn1cnnn1)Oc1cc(-c2cnc(Nc3cn([C@H]4CC[C@H](N5[C@@H]6CC[C@H]5COC6)CC4)nc3OCCS(C)(=O)=O)nc2)ccc1Cl` [Example 86, 5-(3-(((S)-1-(1H-tetrazol-1-yl)propan-2-yl)oxy)-4-chlorophenyl)-N-(1-((1r,4r)-4-((1R,5S)-3-oxa-8-azabicyclo[3.2.1]octan-8-yl)cyclohexyl)-3-(2-(methylsulfonyl)ethoxy)-1H-pyrazol-4-yl)pyrimidin-2-amine], the IC50 is < 10 nM.

As for `C[C@@H](Cn1cnnn1)Oc1cc(-c2cnc(Nc3cn([C@H]4CC[C@H](N5CCOCC5)CC4)nc3OCc3ccccn3)nc2)ccc1C#N` [Example 129, 2-(((S)-1-(1H-tetrazol-1-yl)propan-2-yl)oxy)-4-(2-((1-((1r,4r)-4-morpholinocyclohexyl)-3-(pyridin-2-ylmethoxy)-1H-pyrazol-4-yl)amino)pyrimidin-5-yl)benzonitrile], the IC50 was < 10 nM.

On to `C[C@@H](Cn1cnnn1)Oc1cc(-c2cnc(Nc3cn([C@H]4CC[C@H](N5CCOCC5)CC4)nc3OCc3ccccn3)nc2)ccc1Cl` [Example 130, 5-(3-(((S)-1-(1H-tetrazol-1-yl)propan-2-yl)oxy)-4-chlorophenyl)-N-(1-((1r,4r)-4-morpholinocyclohexyl)-3-(pyridin-2-ylmethoxy)-1H-pyrazol-4-yl)pyrimidin-2-amine], for which the half-maximal inhibitory concentration (IC50) is < 10 nM.

`C[C@@H](Cn1cnnn1)Oc1cc(-c2cnc(Nc3cn([C@H]4CC[C@H](N5[C@@H]6CC[C@H]5COC6)CC4)nc3OCCCS(C)(=O)=O)nc2)ccc1Cl` [Example 142, 5-(3-(((S)-1-(1H-tetrazol-1-yl)propan-2-yl)oxy)-4-chlorophenyl)-N-(1-((1r,4r)-4-((1R,5S)-3-oxa-8-azabicyclo[3.2.1]octan-8-yl)cyclohexyl)-3-(3-(methylsulfonyl)propoxy)-1H-pyrazol-4-yl)pyrimidin-2-amine]: the IC50 was < 10 nM.

`COCCCCOc1nn([C@H]2CC[C@H](N3CCOCC3)CC2)cc1Nc1ncc(-c2ccc(C#N)c(O[C@@H](C)Cn3cnnn3)c2)cn1` [Example 150, 2-(((S)-1-(1H-tetrazol-1-yl)propan-2-yl)oxy)-4-(2-((3-(4-methoxybutoxy)-1-((1r,4r)-4-morpholinocyclohexyl)-1H-pyrazol-4-yl)amino)pyrimidin-5-yl)benzonitrile]: the IC50 is < 10 nM.

`COCCCCOc1nn([C@H]2CC[C@H](N3CCOCC3)CC2)cc1Nc1ncc(-c2ccc(Cl)c(O[C@@H](C)Cn3cnnn3)c2)cn1` [Example 151, 5-(3-(((S)-1-(1H-tetrazol-1-yl)propan-2-yl)oxy)-4-chlorophenyl)-N-(3-(4-methoxybutoxy)-1-((1r,4r)-4-morpholinocyclohexyl)-1H-pyrazol-4-yl)pyrimidin-2-amine]: the IC50 was < 10 nM.
